Tested on: OCI-Ly1
Assay: Tumor growth of DLBCL cell line derived xenograft model OCI-Ly1
Assay type: in vivo, mice
Details: BCL6 sensitive tumor xenograft model (OCI-Ly1), 10 mg/kg BID
Experimental: Mice bearing subcutaneous tumors were orally (po) administered vehicle or Compound A at 1, 3, 10, or 30 mg/kg daily for 22 days (qd×22). Dosing began with tumors at an average of 140 mm^3. […] Statistical analyses were performed using 2-way ANOVA: p<0.0001 (****). Error bars represent standard error of the mean (±SEM).
Mice bearing subcutaneous tumors were orally (po) administered vehicle or Compound A at 1, 3, or 10 mg/kg bi-daily for 23 days (bid×23). Dosing began with tumors at an average of 170 mm^3. […] FIG. 7C depicts tumor lysate BCL6 protein levels 16-hours post-last dose analyzed by western blotting. Individual tumor BCL6 levels are shown in a scatter plot, mean is represented by the bar, determined by densitometry, normalized to GAPDH loading controls, and shown as a percentage of vehicle. Percent BCL6 degradation (%) relative to vehicle is shown above each arm. Statistical analyses were performed using 2-way ANOVA: p<0.0001 (****). Error bars represent standard error of the mean (±SEM).

| Compound | Ly-1 TGI @ 10 mg/kg (BID) [%] |
| --- | --- |
| CNC(=O)COc1cc2cc(Nc3nc(N4CCC(O[C@H]5C[C@H](N6CCC(c7ccc8c(c7F)CN(C7CCC(=O)NC7=O)C8=O)CC6)C5)CC4)ncc3Cl)ccc2n(C(C)C)c1=O (some centres unmarked) [Compound 81, 2-({6-[(5-chloro-2-{4-[(1r,3r)-3-{4-[2-(2,6-dioxopiperidin-3-yl)-4-fluoro-1-oxo-2,3-dihydro-1H-isoindol-5-yl]piperidin-1-yl}cyclobutoxy]piperidin-1-yl}pyrimidin-4-yl)amino]-2-oxo-1-(propan-2-yl)-1,2-dihydroquinolin-3-yl}oxy)-N-methylacetamide] | 100 |
| CNC(=O)COc1cc2cc(Nc3nc(N4CCC(O[C@H]5C[C@H](N6CCC(c7ccc8c(c7Cl)CN(C7CCC(=O)NC7=O)C8=O)CC6)C5)CC4)ncc3Cl)ccc2n(C(C)C)c1=O (some centres unmarked) [Compound 163, 2-({6-[(5-chloro-2-{4-[(1r,3r)-3-{4-[4-chloro-2-(2,6-dioxopiperidin-3-yl)-1-oxo-2,3-dihydro-1H-isoindol-5-yl]piperidin-1-yl}cyclobutoxy]piperidin-1-yl}pyrimidin-4-yl)amino]-2-oxo-1-(propan-2-yl)-1,2-dihydroquinolin-3-yl}oxy)-N-methylacetamide] | 95 |
| CNC(=O)COc1cc2cc(Nc3nc(N4CCC(O[C@H]5C[C@H](N6CCC(c7cc(C)c8c(c7F)CN(C7CCC(=O)NC7=O)C8=O)CC6)C5)CC4)ncc3Cl)ccc2n(C(C)C)c1=O (some centres unmarked) [Compound 208, 2-({6-[(5-chloro-2-{4-[(1r,3r)-3-{4-[2-(2,6-dioxopiperidin-3-yl)-4-fluoro-7-methyl-1-oxo-2,3-dihydro-1H-isoindol-5-yl]piperidin-1-yl}cyclobutoxy]piperidin-1-yl}pyrimidin-4-yl)amino]-2-oxo-1-(propan-2-yl)-1,2-dihydroquinolin-3-yl}oxy)-N-methylacetamide] | 77 |
| CNC(=O)COc1cc2cc(Nc3nc(N4CCC(O[C@H]5C[C@H](N6CC[C@@H](c7ccc8c(c7F)CN([C@H]7CCC(=O)NC7=O)C8=O)C(C)(C)C6)C5)CC4)ncc3Cl)ccc2n(C(C)C)c1=O [Compound 209, 2-({6-[(5-chloro-2-{4-[(1r,3r)-3-[(4R)-4-{2-[(3S)-2,6-dioxopiperidin-3-yl]-4-fluoro-1-oxo-2,3-dihydro-1H-isoindol-5-yl}-3,3-dimethylpiperidin-1-yl]cyclobutoxy]piperiidn-1-yl}pyrimidin-4-yl)amino]-2-oxo-1-(propan-2-yl)-1,2-dihydroquinolin-3-yl}oxy)-N-methylacetamide] | 104 |
| CNC(=O)COc1cc2cc(Nc3nc(N4CCC(O[C@H]5C[C@H](N6CCN(c7ccc8c(c7)CN([C@H]7CCC(=O)NC7=O)C8=O)C(C)(C)C6)C5)CC4)ncc3Cl)ccc2n(C(C)C)c1=O [Compound 211, 2-({6-[(5-chloro-2-{4-[(1r,3r)-3-(4-{2-[(3S)-2,6-dioxopiperidin-3-yl]-1-oxo-2,3-dihydro-1H-isoindol-5-yl}-3,3-dimethylpiperazin-1-yl)cyclobutoxy]piperidin-1-yl}pyrimidin-4-yl)amino]-2-oxo-1-(proapn-2-yl)-1,2-dihydroquinolin-3-yl}oxy)-N-methylacetamide] | 87 |

Source: patent US20240335444A1, “MODULATORS OF BCL6 PROTEOLYSIS AND ASSOCIATED METHODS OF USE” (Arvinas Operations, Inc., priority 2023, published 2024)
